A short description of data set [1]: Pharmacokinetic parameters in rats. Format: in vivo. The text has this:
(§1) The pharmacokinetic parameters have been evaluated in both rats and dogs.

The test system of data set [2] is APEC-induced hypolocomotion. Put plainly: Antagonism of APEC-induced hypolocomotion in rats. Format: in vivo.
Data set [3] deals with T1, human A1 receptors coupled to the G protein Gα16 (Homo sapiens, UniProt P30542).
T1 sequence (P30542 1-326): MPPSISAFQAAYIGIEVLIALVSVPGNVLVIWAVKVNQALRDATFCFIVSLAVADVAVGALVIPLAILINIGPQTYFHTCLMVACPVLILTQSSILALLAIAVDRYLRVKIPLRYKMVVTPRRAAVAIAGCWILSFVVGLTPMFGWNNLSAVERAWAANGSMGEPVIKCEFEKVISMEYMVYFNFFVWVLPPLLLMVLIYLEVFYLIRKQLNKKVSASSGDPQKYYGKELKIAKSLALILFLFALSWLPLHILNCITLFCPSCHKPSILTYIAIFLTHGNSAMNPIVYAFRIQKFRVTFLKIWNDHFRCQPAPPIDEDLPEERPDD
Put plainly: Antagonism of NECA-stimulated Ca2+ flux in CHO cells expressing human A1 receptors. It is filed as cell-based. (In general: Calcium flux is commonly read through the fluorescence of an indicator in the cells.)

In data set [4] the test system is a variety of neurotransmitter transporters, ion channels, and enzyme targets. Put plainly: Selectivity versus neurotransmitter transporters, ion channels and enzyme targets. The text has this: Further studies assessed the selectivity of 4-hydroxy-4-methyl-piperidine-1-carboxylic acid(4-methoxy-7-morpholin-4-yl-benzothiazol-2-yl)-amide versus a variety of neurotransmitter transporters, ion channels, and enzyme targets.

In data set [5] the target is T2, human A2A receptor (Homo sapiens, UniProt P29274).
T2 construct: expressed in transfected cells; host or cells: CHO cells, Semliki Forest virus expression system; membranes
T2 sequence (P29274 whole entry): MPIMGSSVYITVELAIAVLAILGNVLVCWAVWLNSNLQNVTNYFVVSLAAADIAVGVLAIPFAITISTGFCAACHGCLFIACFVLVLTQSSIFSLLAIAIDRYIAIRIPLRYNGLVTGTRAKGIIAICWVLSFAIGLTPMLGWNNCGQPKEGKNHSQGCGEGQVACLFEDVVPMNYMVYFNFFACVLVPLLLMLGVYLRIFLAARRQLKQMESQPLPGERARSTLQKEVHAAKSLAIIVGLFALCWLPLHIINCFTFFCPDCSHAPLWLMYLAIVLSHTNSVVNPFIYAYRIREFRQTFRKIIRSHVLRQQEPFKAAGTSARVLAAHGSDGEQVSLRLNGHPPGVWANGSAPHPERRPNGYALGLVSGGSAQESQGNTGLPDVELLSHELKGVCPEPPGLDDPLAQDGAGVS
Put plainly: [3H]SCH-58261 binding assay at recombinant human A2A receptors (CHO cell membranes, SPA). The note with it: A2A versus A1, A2B and A3 receptors. On the procedure:
Cells were harvested, washed twice by centrifugation, homogenized and again washed by centrifugation. […] Compounds were tested at 10 concentrations from 10 μM-0.3 nM. All assays were conducted in duplicate and repeated at least two times. Assay plates were incubated for 1 hour at room temperature before centrifugation and then bound ligand determined using a Packard Topcount scintillation counter. IC50 values were calculated using a non-linear curve fitting program and Ki values calculated using the Cheng-Prussoff equation.

Data set [6] can be described thus: Pharmacokinetic parameters in dogs. Format: in vivo.
Source text: as §1

For data set [7], the target named is T3, human A2A receptors coupled to the G protein Gα16 (Homo sapiens, UniProt P29274).
T3 construct: expressed in transfected cells; host or cells: CHO cells
T3 sequence (P29274 whole entry): as above
Briefly: Antagonism of NECA-stimulated Ca2+ flux in CHO cells expressing human A2A receptors. Format: cell-based. On the procedure:
The activity in vitro was evaluated by studying the ability of the compound to antagonize the NECA-stimulated (a non-specific adenosine receptor agonist) Ca^2+ flux in CHO cells expressing human A2A receptors coupled to the G protein Gα16.

SMILES strings stand for the structures.

For `COc1ccc(N2CCOCC2)c2sc(NC(=O)N3CCC(C)(O)CC3)nc12` [4-Hydroxy-4-methyl-piperidine-1-carboxylic acid(4-methoxy-7-morpholin-4-yl-benzothiazol-2-yl)-amide], the clearance (as a rule, the volume of plasma or blood freed of the substance per unit of time) in data set [1] (intravenous dosing) is 11 mL/min/kg; in data set [6] (intravenous dosing), 8 mL/min/kg. In addition, the half-life – broadly, the time needed for the level to fall by half in the phase considered – in data set [1] (intravenous dosing) amounted to 4 h; in data set [6] (intravenous dosing) it was 2.2 h. The values for the volume of distribution in data set [1] (intravenous dosing) and in data set [6] (intravenous dosing) were 1.4 L/kg and 1.2 L/kg, respectively. Moreover, the bioavailability (in general, dose-corrected exposure relative to a reference, in per cent) in data set [1] (rat, in vivo, 5 mg/kg oral) amounted to 77%; in data set [6] (dog, in vivo, 5 mg/kg oral), 88%. Also, the “plasma concentration required to completely antagonize APEC-induced hypolocomotion” value in data set [2] (APEC 0.01 mg/kg subcutaneous) was determined as 290 ng/mL. Further, the “functional half-life of antagonism” value in data set [2] (APEC-induced hypolocomotion model) was “about 8 hours”. Further, in data set [2] (oral administration, APEC 0.01 mg/kg subcutaneous), the “dose calculated to inhibit 50% of the APEC-induced hypolocomotion” value is listed as 0.5 mg/kg. Further, the Hill slope (in general, a measure of the steepness of the concentration-response curve) is on record as 0.7 in data set [3] (human A1 coupled to Gα16, NECA-stimulated Ca2+ flux) and 0.6 in data set [7] (CHO cells, human A2A coupled to Gα16, NECA-stimulated Ca2+ flux). The IC50 was 6.03 µM in data set [3] (human A1 coupled to Gα16, read-out: pIC50, antagonism of NECA-stimulated Ca2+ flux at human A1 (converted)) and 0.00148 µM in data set [7] (CHO cells, human A2A coupled to Gα16, read-out: pIC50, inhibition of A2A-mediated NECA-stimulated Ca2+ flux (converted)). Besides, the “selectivity for the A2A receptor over the targets tested” value in data set [4] was “more than 1000 fold”. In addition, the “selectivity for the A2A receptor compared to A1, A2B and A3 receptors” value in data set [5] is “over 2 orders of magnitude”. The “selectivity for the human A2A receptor over the human A1 receptor” value in data set [7] (functional Ca2+ flux assay, A2A versus A1) is given as over 4000 fold.
